Reference: PubChem BioAssay AID2060509 (Molecular Pharmacology Branch, DTP, NCI, 2025)

Tested on: 485176-168-R4-J1-PDC spheroids with HUVEC/MSC, viability
Assay: Anticancer human tumor 485176-168-R4-J1-PDC patient-derived pancreatic adenocarcinoma cell line growth inhibition [GQUAD]
Settings: for viability, T/C: stronger effect = lower value; active = viability on the fitted dose curve at most 10% of control; inactive = the rest
Text: DNA G-quadruplex Stabilizer Agents in Combinations in Complex Spheroids
A high-throughput screen of multi-cell type tumor spheroids was designed to identify active combinations of DNA G-quadruplex stabilizer agents and targeted small molecules. Complex spheroids include a stromal component modeled by human endothelial cells (HUVEC) and fibroblasts modeled by human mesenchymal stem cells (MSCs). The concentration ranges selected for each drug and investigational agent were based upon clinically achievable concentrations if the clinical Cmax of the agent was known.
Compounds. The drugs and investigational agents: pidnarulex (CX-5461; NSC782164), APTO-253 (NSC789042), BRACO-19 (NSC847499), peposertib (NSC802822), ceralasertib (NSC780249), elimusertib (NSC800525), camonsertib (NSC841442), AZD-1390 (NSC803789), olaparib (NSC753686), talazoparib (NSC767125), ART-558 (NSC835418), sotorasib (NSC818433), MRTX-1133 (NSC836407), SN-38 (NSC673596), topotecan (NSC609699), etoposide (NSC141540), doxorubicin (NSC123127), gemcitabine (NSC613327), 5-fluorouracil (NSC19893), paclitaxel (NSC125973), vemurafenib (NSC761431), panobinostat (NSC761190), R-306465 (JNJ-16241199; NSC773264), adavosertib (NSC754352), TP-3654 (NSC805149), carboplatin (NSC241240), KSQ-4279 (NSC840948), and staurosporine (NSC755774) were obtained from the National Cancer Institute (NCI) Developmental Therapeutics Program Chemical Repository (34). The FDA-approved anticancer drug set is available from the NCI Developmental Therapeutics Program. […] The stock solutions were prepared in dimethyl sulfoxide (DMSO, Sigma-Aldrich, St. Louis, MO, cat. D2650) at 800-fold the tested concentration and stored at -70 degrees C prior to their use. All drugs and investigational agents were tested over a range starting from a high concentration at or near the clinical Cmax and decreasing in half-log increments. If the clinical Cmax for an agent had not been determined, the highest concentration tested was 10 microM.
2.3 Cell Culture. All cells were maintained in an incubator at 37 degrees C and 5% CO2 with 95% humidity. The PDC lines were cultured according to standard operating procedures established by the NCI PDMR. All PDCs were thawed and cultured in Matrigel-coated flasks prepared with a working solution of 1X Ham's F-12 nutrient mix, without supplementation (Invitrogen, cat. 11765054), 100 U/mL penicillin-streptomycin (Invitrogen, cat. 15140122), and 2.5% Matrigel (Corning Inc., cat. 354248) for the first three passages. The 857933-349-R-J2-PDC line was cultured in 6C/Colon 1B media, which includes advanced DMEM/F-12 (Thermo Fisher Scientific, cat. 12634028), 10 mM HEPES (Thermo Fisher Scientific, cat. 15630080), 1X GlutaMAX supplement (Thermo Fisher Scientific, cat. 35050061), 0.1 mg/mL primocin (InvivoGen, cat. ant-pm-2), 10% defined fetal bovine serum, heat inactivated (HyClone Laboratories Inc., cat. SH30070.03HI), 50% L-WRN conditioned media (ATCC, cat. CRL-3276), 1.25 mM N-Acetyl-L-cysteine (Sigma-Aldrich, cat. A9165), 10 mM nicotinamide (Sigma-Aldrich, cat. N0636), 1X B-27 supplement (Thermo Fisher Scientific, cat. 17504044), 1X N-2 supplement (Thermo Fisher Scientific, cat. 17502048), 10 microM Y-27632 dihydrochloride (Tocris Bioscience, cat. 1254), and 50 ng/mL human EGF recombinant protein (Thermo Fisher Scientific, cat. PHG0311). The 485176-168-R4-J1-PDC line was cultured in Panc media, which includes all 6C/Colon 1B media components plus 100 ng/mL human FGF-10 (Thermo Fisher Scientific, cat. 100-26), 500 nM SB-431542 (Selleckchem, cat. S1067), and gastrin (Tocris, cat. 3006).
[…]

[1] = curve of first compound, second compound 0.0316 µM
[2] = curve of first compound, second compound 0.1 µM
[3] = curve of first compound, second compound 0.316 µM
[4] = curve of first compound, second compound 1 µM
[5] = curve of first compound, second compound 3.16 µM
[6] = curve of first compound, second compound 10 µM
[7] = second compound 0.0316 µM, first compound 0.0316 µM
[8] = second compound 0.0316 µM, first compound 0.1 µM
[9] = second compound 0.0316 µM, first compound 0.316 µM
[10] = second compound 0.0316 µM, first compound 1 µM
[11] = second compound 0.0316 µM, first compound 3.16 µM
[12] = second compound 0.0316 µM, first compound 10 µM
[13] = second compound 0.1 µM, first compound 0.0316 µM
[14] = second compound 0.1 µM, first compound 0.1 µM
[15] = second compound 0.1 µM, first compound 0.316 µM
[16] = second compound 0.1 µM, first compound 1 µM
[17] = second compound 0.1 µM, first compound 3.16 µM
[18] = second compound 0.1 µM, first compound 10 µM
[19] = second compound 0.316 µM, first compound 0.0316 µM
[20] = second compound 0.316 µM, first compound 0.1 µM
[21] = second compound 0.316 µM, first compound 0.316 µM
[22] = second compound 0.316 µM, first compound 1 µM
[23] = second compound 0.316 µM, first compound 3.16 µM
[24] = second compound 0.316 µM, first compound 10 µM
[25] = second compound 1 µM, first compound 0.0316 µM
[26] = second compound 1 µM, first compound 0.1 µM
[27] = second compound 1 µM, first compound 0.316 µM
[28] = second compound 1 µM, first compound 1 µM
[29] = second compound 1 µM, first compound 3.16 µM
[30] = second compound 1 µM, first compound 10 µM
[31] = second compound 3.16 µM, first compound 0.0316 µM
[32] = second compound 3.16 µM, first compound 0.1 µM
[33] = second compound 3.16 µM, first compound 0.316 µM
[34] = second compound 3.16 µM, first compound 1 µM
[35] = second compound 3.16 µM, first compound 3.16 µM
[36] = second compound 3.16 µM, first compound 10 µM
[37] = second compound 10 µM, first compound 0.0316 µM
[38] = second compound 10 µM, first compound 0.1 µM
[39] = second compound 10 µM, first compound 0.316 µM
[40] = second compound 10 µM, first compound 1 µM
[41] = second compound 10 µM, first compound 3.16 µM
[42] = second compound 10 µM, first compound 10 µM
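Note: spheroids exposed to compounds for seven days before readout.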
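Throughout, for viability, T/C: percent viability relative to DMSO vehicle control wells as 100%.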

CC1COCCN1c1cc(-c2ccnn2C)c2ccnc(-c3ccn[nH]3)c2n1 (stereo unspecified) + CN(C)c1ccc(Nc2c3ccc(NC(=O)CCN4CCCC4)cc3nc3cc(NC(=O)CCN4CCCC4)ccc23)cc1
111 nM: IC50 [3]
58 nM: IC50 [6]
inactive: viability, T/C [7] 83.6% | viability, T/C [8] 47.7% | viability, T/C [9] 17% | viability, T/C [10] 11.2% | viability, T/C [11] 10.4% | viability, T/C [12] 11.1% | viability, T/C [13] 84.2% | viability, T/C [14] 54.9% | viability, T/C [15] 18.7% | viability, T/C [16] 11.8% | viability, T/C [17] 10.7% | viability, T/C [19] 81.2% | viability, T/C [20] 52.9% | viability, T/C [21] 20.2% | viability, T/C [22] 10.3% | viability, T/C [25] 87.5% | viability, T/C [26] 45.9% | viability, T/C [27] 23.8% | viability, T/C [28] 12.3% | viability, T/C [29] 11.4% | viability, T/C [31] 64.7% | viability, T/C [32] 43.5% | viability, T/C [33] 17.4% | viability, T/C [34] 12.6% | viability, T/C [35] 10.6% | viability, T/C [36] 11.3% | viability, T/C [37] 61.1% | viability, T/C [38] 39.8% | viability, T/C [39] 23.9% | viability, T/C [40] 13.3% | viability, T/C [41] 11.4%
117 nM: IC50 [2]
70.2 nM: IC50 [5]
active: viability, T/C [18] 8.57% | viability, T/C [23] 9.46% | viability, T/C [24] 10.1% | viability, T/C [30] 9.79% | viability, T/C [42] 9.08%
92.9 nM: IC50 [1]
89.8 nM: IC50 [4]

CC(C)(O)C1CCC(Nc2ccc3ncc(-c4cccc(C(F)(F)F)c4)n3n2)CC1 (stereo unspecified) + CN(C)c1ccc(Nc2c3ccc(NC(=O)CCN4CCCC4)cc3nc3cc(NC(=O)CCN4CCCC4)ccc23)cc1
1500 nM: IC50 [6]
inactive: viability, T/C [7] 101% | viability, T/C [8] 104% | viability, T/C [9] 86.1% | viability, T/C [10] 78.8% | viability, T/C [11] 56.7% | viability, T/C [12] 51.1% | viability, T/C [13] 83.8% | viability, T/C [14] 89.5% | viability, T/C [15] 88.7% | viability, T/C [16] 77.7% | viability, T/C [17] 64.5% | viability, T/C [18] 51% | viability, T/C [19] 104% | viability, T/C [20] 84.6% | viability, T/C [21] 100% | viability, T/C [22] 97.9% | viability, T/C [23] 56.2% | viability, T/C [24] 59.1% | viability, T/C [25] 111% | viability, T/C [26] 104% | viability, T/C [27] 82.2% | viability, T/C [28] 91.4% | viability, T/C [29] 56.6% | viability, T/C [30] 42.1% | viability, T/C [31] 88.1% | viability, T/C [32] 81.1% | viability, T/C [33] 92.1% | viability, T/C [34] 97.7% | viability, T/C [35] 44.4% | viability, T/C [36] 37.3% | viability, T/C [37] 89% | viability, T/C [38] 85.7% | viability, T/C [39] 72.6% | viability, T/C [40] 65.9% | viability, T/C [41] 25.4% | viability, T/C [42] 16.4%
2740 nM: IC50 [5]
> 10000 nM: IC50 [1] | IC50 [2] | IC50 [3]
6250 nM: IC50 [4]

CCCS(=O)(=O)Nc1ccc(F)c(C(=O)c2c[nH]c3ncc(-c4ccc(Cl)cc4)cc23)c1F + Cc1[nH]c2ccc(F)cc2c1-c1nc2c3cccnc3c3ncccc3c2[nH]1
inactive: viability, T/C [7] 95% | viability, T/C [8] 93.6% | viability, T/C [9] 96.1% | viability, T/C [10] 94.8% | viability, T/C [11] 116% | viability, T/C [12] 75.5% | viability, T/C [13] 84.8% | viability, T/C [14] 102% | viability, T/C [15] 87.8% | viability, T/C [16] 86.1% | viability, T/C [17] 99.1% | viability, T/C [18] 71.2% | viability, T/C [19] 105% | viability, T/C [20] 86.1% | viability, T/C [21] 90.7% | viability, T/C [22] 82.9% | viability, T/C [23] 80.1% | viability, T/C [24] 67.2% | viability, T/C [25] 87.2% | viability, T/C [26] 85.2% | viability, T/C [27] 76.7% | viability, T/C [28] 84.2% | viability, T/C [29] 77.5% | viability, T/C [30] 69.5% | viability, T/C [31] 104% | viability, T/C [32] 88.6% | viability, T/C [33] 89% | viability, T/C [34] 72.1% | viability, T/C [35] 84% | viability, T/C [36] 63.5% | viability, T/C [37] 84.9% | viability, T/C [38] 91% | viability, T/C [39] 88.4% | viability, T/C [40] 74.9% | viability, T/C [41] 66.6% | viability, T/C [42] 51.7%
> 10000 nM: IC50 [1] | IC50 [2] | IC50 [3] | IC50 [4] | IC50 [5] | IC50 [6]

CN(C)c1ccc(Nc2c3ccc(NC(=O)CCN4CCCC4)cc3nc3cc(NC(=O)CCN4CCCC4)ccc23)cc1
> 10000 nM: IC50 (compound alone, run of 03/26/2024)
inactive: viability, T/C (compound 0.0316 µM) 101% [middle of 12 runs] | viability, T/C (compound 0.316 µM) 102% [middle of 12 runs] | viability, T/C (compound 3.16 µM) 93.2% [middle of 12 runs] | viability, T/C (compound 10 µM) 84.2% [middle of 12 runs]
